Results from the supplement of paper PMC10307832.

Tests used:
Assay in all cases: relative viability (nuclei count vs DMSO), 5 days (fraction); higher = more cells survive
[1] = compound: CCN(CC)CCNC(=O)c1c(C)[nH]c(/C=C2\C(=O)Nc3ccc(F)cc32)c1C [Sunitinib] + CCNC(=O)c1noc(-c2cc(C(C)C)c(O)cc2O)c1-c1ccc(CN2CCOCC2)cc1 [Luminespib] (partner 0.01 µM)
Method in brief: (§1)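 A single step with final 0.05% Triton X-100, 1% formaldehyde and 1 ug/ml Hoechst fixed the cells and stained nuclei 5 days after treatment. Lung cancer cell lines in 1536-well plates had been treated by pin tool the day after seeding with one drug alone or a fixed anchor-drug dose plus five library-drug doses (not always all listed) in √10 steps, and nuclei were counted on 4× images. Relative viability is the ratio of nuclei in treated wells to nuclei in vehicle wells, taken as the median of duplicate plates.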

[2] = compound: CCN(CC)CCNC(=O)c1c(C)[nH]c(/C=C2\C(=O)Nc3ccc(F)cc32)c1C [Sunitinib] + Cc1nc(Nc2ncc(C(=O)Nc3c(C)cccc3Cl)s2)cc(N2CCN(CCO)CC2)n1 [Dasatinib] (partner 0.075 µM)
Method in brief: as §1

[3] = compound: CCN(CC)CCNC(=O)c1c(C)[nH]c(/C=C2\C(=O)Nc3ccc(F)cc32)c1C [Sunitinib] + COc1cc2c(Oc3ccc(NC(=O)C4(C(=O)Nc5ccc(F)cc5)CC4)cc3F)ccnc2cc1OCCCN1CCOCC1 [Foretinib] (partner 0.25 µM)
Method in brief: as §1

[4] = compound: CCN(CC)CCNC(=O)c1c(C)[nH]c(/C=C2\C(=O)Nc3ccc(F)cc32)c1C [Sunitinib] + Nc1ncn([C@H]2C[C@H](O)[C@@H](CO)O2)c(=O)n1 [Decitabine] (partner 2 µM)
Method in brief: as §1

Row | Cell Line | relative viability ([1]; first compound 0.02 µM) | relative viability ([1]; first compound 0.06325 µM) | relative viability ([1]; first compound 0.2 µM) | relative viability ([1]; first compound 0.6325 µM) | relative viability ([1]; first compound 2 µM) | relative viability ([2]; first compound 0.02 µM) | relative viability ([2]; first compound 0.06325 µM) | relative viability ([2]; first compound 0.2 µM) | relative viability ([2]; first compound 0.6325 µM) | relative viability ([2]; first compound 2 µM) | relative viability ([3]; first compound 0.02 µM) | relative viability ([3]; first compound 0.06325 µM) | relative viability ([3]; first compound 0.2 µM) | relative viability ([3]; first compound 0.6325 µM) | relative viability ([3]; first compound 2 µM) | relative viability ([4]; first compound 0.02 µM) | relative viability ([4]; first compound 0.06325 µM) | relative viability ([4]; first compound 0.2 µM) | relative viability ([4]; first compound 0.6325 µM) | relative viability ([4]; first compound 2 µM)
1 | EKVX | 0.811 | 0.918 | 0.747 | 0.942 | 0.936 | 0.524 | 0.638 | 0.605 | 0.669 | 0.654 | 0.739 | 0.752 | 0.918 | 1.3 | 0.892 | 0.352 | 0.384 | 0.45 | 0.382 | 0.412
2 | EMC-BAC-2 | 1.11 | 1.2 | 1.11 | 1.16 | 1.14 | 0.318 | 0.336 | 0.383 | 0.344 | 0.36 | 0.973 | 1.08 | 1.15 | 1.07 | 0.969 | 0.94 | 1.02 | 1.14 | – | 1.04
3 | EPLC-272H | 0.364 | 0.38 | 0.561 | 0.582 | 0.262 | 0.385 | 0.418 | 0.374 | 0.409 | 0.333 | 0.702 | 0.65 | – | 0.771 | 0.637 | 0.346 | 0.408 | 0.389 | 0.368 | 0.312
4 | H3255 | 0.944 | 1.03 | – | 1.05 | 0.952 | 0.455 | 0.379 | 0.418 | 0.336 | 0.381 | 0.782 | 0.573 | 0.819 | 0.861 | 1.01 | 0.567 | 0.671 | 0.607 | 0.651 | 0.529
5 | HARA | 0.67 | 0.819 | 0.536 | 0.882 | 0.651 | 0.2 | 0.254 | 0.278 | 0.286 | 0.302 | 0.857 | 1.13 | 0.97 | 0.991 | 0.868 | 0.506 | 0.604 | 0.539 | 0.563 | 0.586
6 | HCC-15 | 0.251 | 0.278 | 0.347 | 0.255 | 0.227 | 0.549 | 0.709 | 0.726 | 0.66 | 0.598 | 1.07 | 1.14 | 1.16 | 1.13 | 1.02 | 0.639 | 0.829 | 0.708 | 0.671 | 0.677
7 | HCC-827 | 0.572 | 0.377 | 0.606 | 0.751 | 0.554 | 0.259 | 0.284 | 0.336 | 0.279 | 0.342 | 1.05 | 0.958 | 1.04 | 1.03 | 1.07 | 0.324 | 0.314 | 0.31 | 0.322 | 0.292
8 | HOP-62 | 0.832 | 0.928 | 1 | 1.02 | 0.919 | 0.616 | 0.744 | 0.826 | 0.777 | 0.682 | 0.923 | 1.21 | 1.2 | 1.22 | 1.18 | 0.22 | 0.218 | 0.252 | 0.209 | 0.239
9 | LC-2-ad | 1.09 | 1.06 | 1.18 | 1.04 | 0.913 | 0.621 | 0.599 | 0.872 | 0.558 | 0.403 | 0.868 | 0.949 | 0.952 | 0.99 | 0.861 | 0.788 | 0.777 | 0.82 | 0.728 | 0.714
10 | LCLC-97TM1 | 0.597 | 0.743 | – | 0.794 | 0.772 | 0.918 | 0.904 | 0.914 | 0.911 | 0.793 | 0.926 | – | 1.13 | 0.991 | 0.926 | 0.232 | 0.225 | 0.238 | 0.212 | 0.223
11 | LCLC-103H | 0.883 | 1.04 | 0.966 | 0.977 | 1.06 | 0.428 | 0.527 | 0.501 | 0.462 | 0.589 | 0.702 | 1.01 | 0.922 | 0.873 | 0.791 | 0.691 | 0.798 | 0.77 | 0.709 | 0.71
12 | LK-2 | 0.193 | 0.213 | 0.208 | 0.231 | 0.2 | 0.223 | 0.27 | 0.324 | 0.339 | 0.297 | 1.1 | 1.56 | 1.72 | 1.42 | 1.24 | 0.238 | 0.409 | 0.299 | 0.316 | 0.279
13 | LOU-NH91 | 0.332 | 0.403 | 0.338 | 0.357 | 0.349 | 0.576 | 0.564 | 0.615 | 0.648 | 0.644 | 0.939 | 0.974 | 1.04 | 0.998 | 0.878 | 0.787 | 0.824 | 0.826 | 0.805 | 0.835
14 | LU99A | 0.281 | 0.254 | 0.281 | 0.221 | 0.299 | 0.489 | 0.5 | 0.612 | 0.57 | 0.49 | 0.731 | 0.894 | 0.931 | 1.01 | 0.91 | 0.792 | 0.836 | 1.02 | 0.995 | 0.734
15 | LXF-289 | 0.635 | 0.734 | 0.89 | – | 0.651 | 0.248 | 0.25 | 0.237 | 0.204 | 0.271 | 0.979 | 1.02 | 1.02 | 1.03 | 1.1 | 0.379 | 0.394 | 0.436 | 0.382 | 0.408
16 | NCI-H23 | 0.214 | 0.229 | 0.204 | 0.214 | 0.21 | 0.658 | 0.787 | 0.959 | 0.955 | 0.794 | 0.875 | 1.25 | 1.03 | 1.1 | 0.749 | 0.293 | 0.351 | 0.328 | 0.307 | 0.329
